Reference: patent US20100069366A1, “ANTIBACTERIAL QUINOLINE DERIVATIVES” (JANSSEN-CILAG, priority 2006, published 2010)
In brackets after ≈: the same amount, converted by molar mass. Read-outs that look alike come from different tables or passages of the source.

Assays:
Type in all cases: cell-based
[1] = tested on: Streptococcus pneumoniae (ATCC6305); test: Microtitre plate assay, IC90 determination, SPN 6305; settings: 90% inhibitory concentration for bacterial growth, resazurin
Protocol: (§1) The bacteria used in this study were grown overnight in flasks containing 100 ml Mueller-Hinton Broth (Becton Dickinson—cat. no. 275730) in sterile de-ionized water, with shaking, at 37° C. Stocks (0.5 ml/tube) were stored at −70° C. until use. Bacteria titrations were performed in microtiter plates to detect the TCID50, in which the TCID50 represents the dilution that gives rise to bacterial growth in 50% of inoculated cultures.
(§2) In general, an inoculum level of approximately 100 TCID50 was used for susceptibility testing.
(§3) Flat-bottom, sterile 96-well plastic microtiter plates were filled with 180 μl of sterile deionized water, supplemented with 0.25% BSA. Subsequently, stock solutions (7.8× final test concentration) of compounds were added in 45 μl volumes in column 2 Serial five-fold dilutions (45 μl in […]) were made directly in the microtiter plates from column 2 to reach column 11. Untreated control samples with (column 1) and without (column 12) inoculum were included in each microtiter plate. Depending on the bacteria type, approximately 10 to 60 CFU per well of bacteria inoculum (100 TCID50), in a volume of 100 μl in 2.8× Mueller-Hinton broth medium, was added to the rows A to H, except column 12. The same volume of broth medium without inoculum was added to column 12 in row A to H. The cultures were incubated at 37° C. for 24 hours under a normal atmosphere (incubator with open air valve and continuous ventilation). At the end of incubation, one day after inoculation, the bacterial growth was quantitated fluorometrically. Therefore resazurin (0.6 mg/ml) was added in a volume of 20 μl to all wells 3 hours after inoculation, and the plates were re-incubated overnight. A change in colour from blue to pink indicated the growth of bacteria. The fluorescence was read in a computer-controlled fluorometer (Cytofluor Biosearch) at an excitation wavelength of 530 nm and an emission wavelength of 590 nm. The % growth inhibition achieved by the compounds was calculated according to standard methods.

[2] = tested on: M. Smegmatis ATCC607; test: In-vitro anti-bacterial activity against strain M. smegmatis ATCC607; settings: for IC90: Mycolicibacterium smegmatis
Protocol: Flat-bottom, sterile 96-well plastic microtiter plates were filled with 180 μl of sterile deionized water, supplemented with 0.25% BSA. Subsequently, stock solutions (7.8× final test concentration) of compounds were added in 45 μl volumes to a series of duplicate wells in column 2 so as to allow evaluation of their effects on bacterial growth. Serial five-fold dilutions (45 μl in 180 μl) were made directly in the microtiter plates from column 2 to 11 using a customised robot system (Zymark Corp., Hopkinton, Mass.). Pipette tips were changed after every 3 dilutions to minimize pipetting errors with high hydrophobic compounds. Untreated control samples with (column 1) and without (column 12) inoculum were included in each microtiter plate. Approximately 250 CFU per well of bacteria inoculum, in a volume of 100 μl in 2.8× Mueller-Hinton broth medium, was added to the rows A to H, except column 12. The same volume of broth medium without inoculum was added to column 12 in row A to H. The cultures were incubated at 37° C. for 48 hours in a humidified 5% CO2 atmosphere (incubator with open air valve and continuous ventilation). At the end of incubation, two days after inoculation, the bacterial growth was quantitated fluorometrically. Therefore Alamar Blue (10×) was added to all wells in a volume of 20 μl and plates were incubated for another 2 hours at […]
The fluorescence was read in a computer-controlled fluorometer (Cytofluor, Biosearch) at an excitation wavelength of 530 nm and an emission wavelength of 590 nm (gain 30).

[3] = tested on: Staphylococcus aureus (ATCC29213); test: Microtitre plate assay, IC90 determination, STA 29213
Protocol: as §1, §2, §3

[4] = Streptococcus pneumoniae ATCC6305
[5] = 90% inhibitory concentration for bacterial growth, 48 hours, Alamar Blue fluorescence
[6] = Staphylococcus aureus ATCC29213, 90% inhibitory concentration for bacterial growth, resazurin
[7] = Staphylococcus aureus, ATCC29213, read-out: IC90 (μg/ml) STA 29213
[8] = Streptococcus pneumoniae, ATCC6305, read-out: IC90 (μg/ml) SPN 6305, Streptococcus pneumoniae ATCC6305
[9] = ATCC607, 48 h, read-out: M. smegmatis IC90 (μg/ml), 90% inhibitory concentration for bacterial growth, Alamar Blue fluorescence
[10] = Staphylococcus aureus ATCC29213, 90% inhibitory concentration for bacterial growth, resazurin, read-out: IC90 (μg/ml) STA 29213
[11] = Streptococcus pneumoniae ATCC6305, read-out: IC90 (μg/ml) SPN 6305
[12] = ATCC607, 90% inhibitory concentration for bacterial growth, 48 hours, Alamar Blue fluorescence, read-out: M. smegmatis IC90

COc1nc2ccc(-c3cc4ccccc4s3)cc2cc1C(C(=CCN(C)C)c1cccc2ccccc12)c1ccccc1 (mixture of isomers) [Compound 34]
IC90 (μg/ml) SPN 6305 [1, 4]: 10.51 µg/mL | M. smegmatis IC90 [2, 5]: 2.35 µg/mL

COc1nc2ccc(Br)cc2cc1C(=C(CCN1CCOCC1)c1ccccc1)c1ccccc1 (mixture of isomers) [Compound 43]
IC90 (μg/ml) STA 29213 [3, 6]: 52.95 µg/mL | IC90 (μg/ml) SPN 6305 [1, 4]: 8.39 µg/mL | M. smegmatis IC90 [2, 5]: 4.21 µg/mL

COc1nc2ccc(Br)cc2cc1C(=C(CCN1CCN(C)CC1)c1ccccc1)c1ccccc1 (mixture of isomers) [Compound 44]
IC90 (μg/ml) STA 29213 [3, 6]: 10.82 µg/mL | IC90 (μg/ml) SPN 6305 [1, 4]: 10.82 µg/mL | M. smegmatis IC90 [2, 5]: 4.31 µg/mL

COc1nc2ccc(Br)cc2cc1C(=C(CCN1CCN(C)CC1)c1ccccc1)c1ccccc1 (mixture of isomers) [Compound 45]
IC90 (μg/ml) STA 29213 [3, 6]: 43.09 µg/mL | IC90 (μg/ml) SPN 6305 [1, 4]: 10.82 µg/mL | M. smegmatis IC90 [2, 5]: 9.65 µg/mL

COc1nc2ccc(F)cc2cc1C(C(=CCN(C)C)c1ccccc1)c1ccccc1 (racemic) [Compound 24]
IC90 (μg/ml) STA 29213 [3, 6]: 33.88 µg/mL (≈ 79.4 µM) | IC90 (μg/ml) SPN 6305 [1, 4]: 1.51 µg/mL (≈ 3.54 µM) | M. smegmatis IC90 [2, 5]: 5.37 µg/mL

CCN(CC)CC=C(c1cccc2ccccc12)C(c1ccccc1)c1cc2cc(Br)ccc2nc1OC (racemic) [Compound 28]
IC90 (μg/ml) STA 29213 [3, 6]: 8.96 µg/mL (≈ 15.8 µM) | IC90 (μg/ml) SPN 6305 [1, 4]: 2.01 µg/mL (≈ 3.55 µM) | M. smegmatis IC90 [2, 5]: 1.79 µg/mL

COc1ccc2nc(OC)c(C(C(=CCN(C)C)c3ccccc3)c3ccccc3)cc2c1 (racemic) [Compound 31]
IC90 (μg/ml) STA 29213 [3, 6]: 39.09 µg/mL (≈ 89.1 µM) | IC90 (μg/ml) SPN 6305 [1, 4]: 7.8 µg/mL (≈ 17.8 µM) | M. smegmatis IC90 [2, 5]: 6.95 µg/mL

COc1nc2ccc(-c3cc4ccccc4s3)cc2cc1C(C(=CCN(C)C)c1cccc(F)c1)c1ccccc1 (racemic) [Compound 33]
IC90 (μg/ml) STA 29213 [3, 6]: 8.86 µg/mL (≈ 15.9 µM) | IC90 (μg/ml) SPN 6305 [1, 4]: 7.89 µg/mL (≈ 14.1 µM) | M. smegmatis IC90 [2, 5]: 7.03 µg/mL

COc1nc2ccc(Br)cc2cc1C(C(=CCn1cncn1)c1ccccc1)c1ccccc1 (racemic) [Compound 47]
M. smegmatis IC90 [2, 5]: 20.36 µg/mL

COc1nc2ccc(Br)cc2cc1C(C(=CCN1CCN(C)CC1)c1ccccc1)c1ccccc1 (racemic) [Compound 48]
IC90 (μg/ml) STA 29213 [3, 6]: 10.82 µg/mL (≈ 19.9 µM) | IC90 (μg/ml) SPN 6305 [1, 4]: 2.72 µg/mL (≈ 5.01 µM) | M. smegmatis IC90 [2, 5]: 1.72 µg/mL

COc1nc2ccc(Br)cc2cc1C(=C(CCn1ccnc1)c1ccccc1)c1ccccc1 (single isomer, unassigned) [Compound 5]
IC90 (μg/ml) STA 29213 [3, 6]: 36.14 µg/mL (≈ 70.8 µM) | IC90 (μg/ml) SPN 6305 [1, 4]: 36.14 µg/mL (≈ 70.8 µM) | M. smegmatis IC90 [2, 5]: 5.1 µg/mL

COc1nc2ccc(Br)cc2cc1C(=C(CCn1ccnc1)c1ccccc1)c1ccccc1 (single isomer, unassigned) [Compound 6]
IC90 (μg/ml) STA 29213 [3, 6]: 10.18 µg/mL (≈ 19.9 µM) | IC90 (μg/ml) SPN 6305 [1, 4]: 10.18 µg/mL (≈ 19.9 µM) | M. smegmatis IC90 [2, 5]: 10.18 µg/mL

COc1nc2ccc(F)cc2cc1C(=C(CCN(C)C)c1ccccc1)c1ccccc1 (single isomer, unassigned) [Compound 39]
IC90 (μg/ml) STA 29213 [3, 6]: 33.88 µg/mL (≈ 79.4 µM) | IC90 (μg/ml) SPN 6305 [1, 4]: 8.51 µg/mL (≈ 20 µM) | M. smegmatis IC90 [2, 5]: 16.98 µg/mL

COc1nc2ccc(Br)cc2cc1C(=C(CCn1cncn1)c1ccccc1)c1ccccc1 (single isomer, unassigned) [Compound 42]
M. smegmatis IC90 [2, 5]: 22.84 µg/mL

COc1nc2ccc(Br)cc2cc1/C(=C(/CCN(C)C)c1ccccc1)c1ccc(Cl)cc1 [Compound 1]
IC90 [3, 7]: 8.27 µg/mL (≈ 15.8 µM) | IC90 [1, 8]: 1.65 µg/mL (≈ 3.16 µM) | IC90 [2, 9]: 1.65 µg/mL (≈ 3.16 µM)

CSc1nc2ccc(Br)cc2cc1/C(=C(/CCN(C)C)c1ccccc1)c1ccccc1 [Compound 2]
IC90 [3, 7]: 7.98 µg/mL (≈ 15.8 µM) | IC90 [1, 8]: 1.59 µg/mL (≈ 3.16 µM) | IC90 [2, 9]: 1.59 µg/mL (≈ 3.16 µM)

CSc1nc2ccc(Br)cc2cc1/C(=C(\CCN(C)C)c1ccccc1)c1ccccc1 [Compound 3]
IC90 [3, 7]: 7.98 µg/mL (≈ 15.8 µM) | IC90 [1, 8]: 1.59 µg/mL (≈ 3.16 µM) | IC90 [2, 9]: 2 µg/mL (≈ 3.97 µM)

CSc1nc2ccc(Br)cc2cc1C(/C(=C/CN(C)C)c1ccccc1)c1ccccc1 (centres unmarked) [Compound 4]
IC90 [3, 7]: 40 µg/mL (≈ 79.4 µM) | IC90 [1, 8]: 17.9 µg/mL (≈ 35.5 µM) | IC90 [2, 9]: 7.98 µg/mL (≈ 15.8 µM)

COc1nc2ccc(Br)cc2cc1C(/C(=C/Cc1ccccc1)CCN(C)C)c1ccccc1 (centres unmarked) [Compound 7]
IC90 [3, 10]: 1.63 µg/mL (≈ 3.16 µM) | IC90 [1, 11]: 2.05 µg/mL (≈ 3.98 µM) | IC90 [2, 12]: 1.63 µg/mL (≈ 3.16 µM)

COc1nc2ccc(Br)cc2cc1/C(=C(\C)CCN(C)C)c1ccccc1 [Compound 15]
IC90 [3, 10]: 33.8 µg/mL (≈ 79.4 µM) | IC90 [1, 11]: 6.74 µg/mL (≈ 15.8 µM) | IC90 [2, 12]: 1.35 µg/mL (≈ 3.17 µM)

COc1nc2ccc(Br)cc2cc1C(/C(=C\CN(C)C)c1ccsc1)c1ccccc1 (centres unmarked) [Compound 16]
IC90 [3, 10]: 7.82 µg/mL (≈ 15.8 µM) | IC90 [1, 11]: 1.56 µg/mL (≈ 3.16 µM) | IC90 [2, 12]: 1.75 µg/mL (≈ 3.55 µM)

COc1nc2ccc(Br)cc2cc1/C(=C(/CCN(C)C)c1ccsc1)c1ccccc1 [Compound 18]
IC90 [3, 10]: 17.5 µg/mL (≈ 35.5 µM) | IC90 [1, 11]: 8.78 µg/mL (≈ 17.8 µM) | IC90 [2, 12]: 9.85 µg/mL (≈ 20 µM)

Clc1ccc(/C(=C(\CCCCN2CCCCC2)c2ccccc2)c2cnc3ccccc3c2)cc1 [Compound 19]
IC90 [2, 9]: 1.52 µg/mL (≈ 3.16 µM)

CSc1nc2ccc(-c3ccccc3)cc2cc1C(/C(=C/CN(C)C)c1ccccc1)c1ccccc1 (centres unmarked) [Compound 20]
IC90 [3, 7]: 1.58 µg/mL (≈ 3.16 µM) | IC90 [1, 8]: 1.41 µg/mL (≈ 2.82 µM) | IC90 [2, 9]: 1.41 µg/mL (≈ 2.82 µM)

Clc1ccc(/C(CCCCN2CCCCC2)=C(/c2ccccc2)c2cnc3ccccc3c2)cc1 [Compound 50]
IC90 [1, 8]: 9.6 µg/mL (≈ 20 µM) | IC90 [2, 9]: 1.92 µg/mL (≈ 3.99 µM)

COc1ccc(/C(CCCCN2CCCCC2)=C(/c2ccc(C#N)cc2)c2cnc3ccccc3c2)cc1 [Compound 56]
IC90 [1, 11]: 12.6 µg/mL (≈ 25.1 µM) | IC90 [2, 12]: 7.95 µg/mL (≈ 15.8 µM)

COc1ccc(/C(=C(\CCCCN2CCCCC2)c2ccccc2)c2cnc3ccccc3c2)cc1 [Compound 57]
IC90 [1, 8]: 9.51 µg/mL (≈ 20 µM) | IC90 [2, 9]: 7.55 µg/mL (≈ 15.8 µM)

COc1ccc(/C(CCCCN2CCCCC2)=C(/c2ccc(OC)cc2)c2cnc3ccccc3c2)cc1 [Compound 59]
IC90 [1, 11]: 11.3 µg/mL (≈ 22.4 µM) | IC90 [2, 12]: 8.03 µg/mL (≈ 15.8 µM)

COc1nc2ccc(Br)cc2cc1C(/C(=C\CCCN1CCCN(C)CC1)c1ccc2ccccc2c1)c1ccccc1 (centres unmarked) [Compound 62]
IC90 [3, 10]: 22.5 µg/mL (≈ 35.5 µM) | IC90 [2, 12]: 8.97 µg/mL (≈ 14.1 µM)

COc1nc2ccc(Br)cc2cc1C(/C(=C/CCCN1CCCN(C)CC1)c1ccc2ccccc2c1)c1ccccc1 (centres unmarked) [Compound 63]
IC90 [3, 10]: 2.25 µg/mL (≈ 3.55 µM) | IC90 [2, 12]: 3.57 µg/mL (≈ 5.63 µM)
